Where two headings read alike, the source gives them in different places.

The target in data set [1] is T1, human androgen receptor (hAR) (Homo sapiens, UniProt P10275).
T1 construct: expressed in transfected cells
T1 sequence (P10275 1-920): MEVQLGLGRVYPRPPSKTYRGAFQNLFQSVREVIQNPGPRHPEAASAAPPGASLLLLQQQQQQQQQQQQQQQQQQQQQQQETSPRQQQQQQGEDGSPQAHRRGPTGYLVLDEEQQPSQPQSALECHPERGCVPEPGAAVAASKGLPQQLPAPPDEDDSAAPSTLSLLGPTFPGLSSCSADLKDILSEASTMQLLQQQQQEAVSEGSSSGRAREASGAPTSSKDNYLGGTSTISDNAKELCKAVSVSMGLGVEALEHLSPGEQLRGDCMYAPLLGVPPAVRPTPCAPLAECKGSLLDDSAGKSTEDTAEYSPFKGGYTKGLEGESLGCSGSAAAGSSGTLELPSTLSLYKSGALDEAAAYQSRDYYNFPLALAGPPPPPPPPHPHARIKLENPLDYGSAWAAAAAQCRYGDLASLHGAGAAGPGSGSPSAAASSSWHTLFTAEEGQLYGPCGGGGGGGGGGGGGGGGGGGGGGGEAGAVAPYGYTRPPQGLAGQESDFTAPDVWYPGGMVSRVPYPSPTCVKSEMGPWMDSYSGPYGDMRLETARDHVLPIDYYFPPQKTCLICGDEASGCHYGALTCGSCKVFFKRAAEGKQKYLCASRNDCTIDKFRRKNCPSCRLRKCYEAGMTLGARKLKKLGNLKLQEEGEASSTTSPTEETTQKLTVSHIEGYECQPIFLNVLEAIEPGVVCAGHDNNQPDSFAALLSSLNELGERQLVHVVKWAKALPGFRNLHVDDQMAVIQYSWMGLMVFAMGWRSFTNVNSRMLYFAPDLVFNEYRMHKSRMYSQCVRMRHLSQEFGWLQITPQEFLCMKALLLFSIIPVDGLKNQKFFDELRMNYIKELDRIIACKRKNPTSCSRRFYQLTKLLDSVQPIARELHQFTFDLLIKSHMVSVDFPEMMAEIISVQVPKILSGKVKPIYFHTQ
Nature of the data set: Functional response (transactivation) test in HALP2 cells (HeLa stably expressing hAR and ARE-luciferase reporter). It counts as cell-based. The conditions noted are these: for Emax: HeLa, read-out: % effect relative to DHT (100%). An excerpt: This test constitutes a method of identifying pure or partial agonists which mimic the effects of natural hormones, such as DHT (dihydrotestosterone) in the present case or, on the other hand, antagonists which inhibit them.
For this transactivation test, plasmids encoding a reporter gene and the human androgen receptor (hAR) are introduced together by transfection into the HeLa cell line. The reporter plasmid contains luciferase cDNA under the control of the AREs contained in the promoter sequences of the probasin gene (3xpbAREminicoll-luciferase/pGL3-puro). The expression of the reporter gene constitutes an indication of the transcriptional activity of hAR. It also encodes a protein allowing the cells expressing it to resist a treatment with puromycin. The plasmid encoding hAR contains the cDNA of hAR under the control of the Cytomegalovirus (CMV) promoter. It also encodes a protein allowing the cells expressing it to resist a treatment with neomycin. The treatment of cells with increasing amounts of potentially agonistic compounds will increase the expression of the reporter gene. To detect antagonists, on the other hand, increasing doses of test compounds are tested in the presence of […] of DHT. The expression of the reporter gene, which is constant for each dose of DHT, decreases when the concentration of the test compounds increases.
The functional response test is conducted on 96-well plates. The HALP2 cells are seeded (20,000 cells per well) in culture medium (DMEM with phenol red, 1% de Pen-Strep, 1% of non-essential amino acids, 10% of fetal bovine serum, 400 μg/mL Geneticin and 0.150 puromycin) on day 1. After 24 hours incubating at 37° C., 5% CO2, high humidity (day 2) the medium is removed and refreshed with test medium (DMEM without phenol red supplemented, 1% de Pen-Strep, 1% of non-essential amino acids and 5% of desteroidised foetal bovine serum). After another 24 hours incubating at 37° C., 5% CO2, high humidity (day 3), the medium is renewed once more before the phase of stimulation.
The cells are placed in contact with the compounds for 24 hours at 37° C., 5% CO2, high humidity. On day 4 the medium is then removed and the luciferase activity reading reagent is placed in contact with the cells in accordance with the manufacturer's instructions (SteadyLite, Perkin-Elmer). The luminescence produced is detected on an Envision reader (Perkin-Elmer). […]
The determination of the relative agonism/antagonism of a compound is obtained by comparing the maximal activation obtained with said compound and the activation obtained with DHT alone (100%).
For orientation: Reporter assays use an easily measured gene product as a stand-in for the process of interest.

Data set [2] can be described thus: Determination of absolute bioavailability (restricted PK profile, oral and intravenous). It counts as in vivo. The conditions noted are these: absolute bioavailability (F), male Sprague Dawley rats, oral 10 mg/kg AUC(0-6 h) vs intravenous 3 mg/kg AUC(0-3 h). On the procedure: To screen rapidly imidazolidines derivatives based on their absolute bioavailabity, restricted pharmacokinetic profile with only fours sampling time points after oral and intravenous route is investigated in Sprague Dawley rats as follows: each test compound is dosed orally (10 mg/kg) and intravenously (3 mg/kg) to groups of 3 male Sprague Dawley rats. Oral doses are administered as solution in EtOH/PEG400/H2O (1/79/20; v/v) by esophageal gavage (2 mg/mL; 5 mL/kg) and intravenous dose is given as solution in DMSO/PEG400/H2O (1/65/34; v/v) as a bolus in the tail vein (3 mg/mL; 1 mL/kg). Before oral dosing, animals are deprived of food (water ad libitum) for at least 16 hours before the start of the study and 6 hours after administration.
Blood is collected at the retro-orbital sinus into polypropylene tubes (Li-heparinate) at +4° C. at the following sampling-times: 0.083, 0.25, 1 and 3 h after intravenous injection and 0.25, 1, 3 and 6 hours after oral dosing. Three (3) animals are sampled per time-point; each animal being sampled four times. After centrifugation at 5000 rpm for 10 min at +4° C., plasma is collected into polypropylene tubes and kept frozen at −20° C. pending assays. Plasma samples are assayed by a LC-MS/MS method with a lower limit of quantification of 1 to 10 ng/mL depending on the compound (volume of plasma: 100 μL).
A LC-MS/MS method for quantification in heparinized plasma was developed for each test compound. Sample preparation consists of a precipitation of plasma proteins with methanol and filtration by centrifugation of supernatant on Captiva deep-well 96 0.2 μm filter plates. Water was added to methanol supernatant phase prior to analysis by liquid chromatography (Pursuit 5 C18 20×2.0 mm VARIAN, 2 μL loop, gradient Water/Methanol (90/10 to 0/100) over 1.7 min) with turboionspray tandem mass spectrometry (API4000) in negative mode using multiple reaction monitoring. The method includes 8 standard and 3 quality control levels with lower limit of quantification corresponding to first standard level.
Exposures are determined using a non compartmental model (WinNonLin 2.1) and the absolute bioavailability (F) is calculated as follows: [AUC(0-6 h) oral*3 mg/kg]/AUC(0-3 h) IV 10 mg/kg] and expressed in percentage.

Data set [3] deals with castrated immature young rats. Kind of data set: Adapted model of Hershberger's test. It counts as in vivo, Sprague Dawley rats. The conditions noted are these: Rattus norvegicus, po, 96 h, ORX control = 0%, SHAM control = 100%, per os daily for 4 days, dose tested 30 mg/kg.
The mark [4] stands for this setting: maximal activation by the compound compared with DHT alone (100%), HALP2 cells.
Setting [5] is: male, Sprague-Dawley, rat, plasma, po, 10 mg/kg, read-out: Bioavailability.
The mark [6] stands for this setting: levator ani weight, read-out: Anabolic activity %.
Setting [7] is: ventral prostate weight, read-out: Androgenic activity % (Prostate).

Turning to `CN1C(=O)N(c2ccc(C#N)c(C(F)(F)F)c2)C(=O)C1(CO)c1ccc(F)cc1` (stereo not shown) [Example 6, 4-[2,5-Dioxo-4-(4-fluorophenyl)-4-(hydroxymethyl)-3-methylimidazolidin-1-yl]-2-trifluoromethylbenzonitrile], the Emax in data set [1] (setting [4]) fell in the range of 21 to 40%. Besides, the EC50 (as a rule, the concentration at which the effect is half-maximal) in data set [1] (agonism: concentration inducing 50% of the maximum agonistic effect of the tested compound, HALP2 cells, 24 hours, read-out: EC50) lay in the range of 11 to 100 nM. Further, the bioavailability – broadly, dose-corrected exposure relative to a reference, in per cent – in data set [2] (setting [5]) was 50 to 90%. Further, the values for the response vs control in vivo at 30 mg/kg in data set [3] (setting [6]) and in data set [3] (setting [7]) were 25 to 50% and 0.5 to 25%, respectively.

For `C#CCN1C(=O)N(c2ccc(C#N)c(C(F)(F)F)c2)C(=O)C1(CO)c1ccc(F)cc1` (stereo not shown) [Example 8, 4-[2,5-Dioxo-4-(4-fluorophenyl)-4-hydroxymethyl-3-(2-propynyl)imidazolidin-1-yl]-2-trifluoromethylbenzonitrile], in data set [1], the EC50 fell in the range of 101 to 500 nM and the Emax is 6 to 20%. For the same molecule, the bioavailability in data set [2] (setting [5]) was > 90%.

For `CC(O)C1(c2ccccc2)C(=O)N(c2ccc(C#N)c(C(F)(F)F)c2)C(=O)N1C` (single isomer, unassigned) [Example 4, 4-[2,5-Dioxo-4-(1-hydroxyethyl)-3-methyl-4-phenylimidazolidin-1-yl]-2-trifluoromethylbenzonitrile], the Emax in data set [1] (setting [4]) was in the range of 0 to 5%. In addition, in data set [2], the bioavailability entry is listed as “# (0-49%)”.

As for `CN1C(=O)N(c2ccc(C#N)c(C(F)(F)F)c2)C(=O)[C@]1(CO)c1ccccc1` [Example 11, (R)-4-[2,5-Dioxo-4-(hydroxymethyl)-3-methyl-4-phenylimidazolidin-1-yl]-2-trifluoromethylbenzonitrile], the Emax in data set [1] (setting [4]) lay within 0 to 5%. The response vs control in vivo at 30 mg/kg was in the range of 50 to 75% in data set [3] (setting [6]) and 0.5 to 25% in data set [3] (setting [7]).
